Like-named read-outs stand apart in the source and are kept apart here.

In assay [1] the test system is 8×TCF promoter-driven Firefly luciferase (Wnt reporter) in HEK-293 cells. Nature of the assay: 2H9-STF assay, Wnt ligand activated HEK-293 assay in WT APC cellular context. The note with it: Homo sapiens, HEK293; HEK-293 reporter cells, 200 ng/mL mouse Wnt3a, 18 to 24 hours; read-out: 2H9-Wnt3a-STF-FF/RL * 100 IC50. It counts as cell-based. The method, then: HEK-293 cells engineered with an 8×TCF promoter-driven Firefly (FF) luciferase gene (Wnt reporter) along with an SV40 promoter-driven Renilla (RN) luciferase gene (control reporter) were used to measure the potency of tankyrase compounds in the context of Wnt ligand activation in a wild-type (non-APC mutated) cellular background. The engineered HEK-293 cells were plated (25 μL) at a density of 40,000 cells/well in black, clear-bottom, 96-well View plates (PerkinElmer) in normal growth medium (DMEM with 10% FBS with no antibiotics). Tankyrase inhibitors (5 μL) were transferred to cells from a three-fold serially diluted compound plate. A 10-point dilution series was tested starting at a concentration (10 μM final concentration in assay). Column 6 contained only DMSO and served as the “HI” control. Cells and compounds were incubated together for 1 hour at 37° C. after which the Wnt3a ligand (pathway inducer) was added to all wells except column 12 which served as the “LO” control. Twenty microliters of diluted recombinant mouse Wnt3a (R & D Systems) was added to the cells for a final concentration of 200 ng/mL (5 nM which is the Wnt3a˜EC80) and the plates were incubated at 37° C. for 18 to 24 hours. The Dual-Glo Reagents (Promega) were added as directed by manufacturer to assay the FF and RN luciferase activity. Luciferase activity was measures using the EnVision multilabel plate reader (PerkinElmer).

Assay [2] deals with 6×HIS-tankyrase 1 (1091-1325) (Homo sapiens (Human), UniProt O95271). Nature of the assay: biochemical. In kind it is biochemical. Conditions: […] enzyme, 400 nM NAD, 60 minutes at room temperature; read-out: TNKS1 IP IC50.
Assay [3] has as its target 6×HIS-tankyrase 2 (946-1162) (Homo sapiens (Human), UniProt Q9H2K2). Nature of the assay: Tankyrase 2 biochemical assay (AlphaLisa, anti-PAR detection). Conditions: 4 nM enzyme, 250 nM NAD; read-out: TNKS2 IP IC50.
The test system of assay [4] is total β-catenin in SW480 colorectal cells. Nature of the assay: cells. It counts as cell-based. The method, boiled down:
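SW480 cells in growth medium (MEM alpha, 10% heat-inactivated FBS, 10 mM HEPES) treated with a 10-point, 3-fold dilution series of TNKS inhibitor for 40–48 h at 37 °C. Lysates run on an MSD sandwich immunoassay for total β-catenin, read by electrochemiluminescence.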

The next assay has as its system Axin2 in SW480 cells. Nature of the assay: cells. In kind it is cell-based. Conditions: read-out: Axin2 384 IF EC50 IP. The method, boiled down: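 SW480 cells treated 24 h at 37° C (0.5% DMSO final), fixed/permeabilized, immunostained for Axin2. ArrayScan imaging quantified ring-spot intensity; Axin2 accumulation expressed as percent of control, EC50 from concentration-response.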

[5] abbreviates: Homo sapiens, SW480 cells, 40 to 48 hours, top concentration 10 μM, read-out: SW480-Total β-Catenin IC50 IP.
Setting [6] is: Homo sapiens, SW480, 24 h, SW480 cells, 24 hours.
[7] abbreviates: Homo sapiens, SW480, read-out: SW480-Total β-Catenin IC50 IP.

Chain of 6×HIS-tankyrase 1 (1091-1325) (O95271 1091-1325): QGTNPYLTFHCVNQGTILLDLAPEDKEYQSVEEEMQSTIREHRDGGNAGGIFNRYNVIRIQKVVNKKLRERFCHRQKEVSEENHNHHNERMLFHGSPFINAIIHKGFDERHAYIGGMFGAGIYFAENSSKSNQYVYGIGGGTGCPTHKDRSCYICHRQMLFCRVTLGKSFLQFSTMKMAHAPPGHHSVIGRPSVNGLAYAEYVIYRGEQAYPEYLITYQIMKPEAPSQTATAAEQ
Chain of 6×HIS-tankyrase 2 (946-1162) (Q9H2K2 946-1162): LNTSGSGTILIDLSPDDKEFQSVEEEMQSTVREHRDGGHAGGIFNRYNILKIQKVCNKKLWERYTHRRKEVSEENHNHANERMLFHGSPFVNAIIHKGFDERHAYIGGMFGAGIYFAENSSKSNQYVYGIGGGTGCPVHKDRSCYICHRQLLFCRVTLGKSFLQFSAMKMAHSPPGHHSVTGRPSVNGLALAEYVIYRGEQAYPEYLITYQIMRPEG

On to `CC1(C)OC(=O)N([C@H]2CC[C@H](NC(=O)c3cccc4cccnc34)CC2)[C@@H]1c1ccccc1` (single isomer, unassigned) [Example 28], for which the IC50 in assay [1] was found to be 113 nM.
Consider `CC1(C)OC(=O)N(c2ccc(-c3cnc(N)c(-c4ccc5nncn5n4)c3)cc2)[C@H]1c1ccccc1` [Example 12, (S)-3-(4-(5-([1,2,4]triazolo[4,3-b]pyridazin-6-yl)-6-aminopyridin-3-yl)phenyl)-5,5-dimethyl-4-phenyloxazolidin-2-one], for which the IC50 stood at 52.1 nM in assay [2], 49.3 nM in assay [3] and 212 nM in assay [4] (setting [5]).
On to `CC1(C)OC(=O)N([C@H]2CC[C@H](C(=O)Nc3cccc4cccnc34)CC2)[C@H]1c1ccccc1` [Example 32, (1S,4r)-4-((S)-5,5-dimethyl-2-oxo-4-phenyloxazolidin-3-yl)-N-(quinolin-8-yl)cyclohexanecarboxamide], for which the IC50 in assay [1] was determined as 92.8 nM.
The EC50 is the concentration at which the effect is half-maximal. `CC1(C)OC(=O)N([C@H]2CC[C@H](n3c(=O)[nH]c4ccccc43)CC2)C1c1ccccc1` (stereo partly drawn) [Example 35, (R+S) 5,5-dimethyl-3-((1r,4r)-4-(2-oxo-2,3-dihydro-1H-benzo[d]imidazol-1-yl)cyclohexyl)-4-phenyloxazolidin-2-one]: the IC50 in assay [2] was 11.8 nM; in assay [4] (setting [5]), 1330 nM; in assay [1] it was 543 nM. Also, in the assay with Axin2 in SW480 cells (setting [6]), the concentration for a half-maximal effect (EC50) turned out to be 6690 nM.
Take `CC1(C)OC(=O)N([C@H]2CC[C@H](n3c(=O)[nH]c4cccnc43)CC2)[C@H]1c1ccccc1` [Example 37, (S)-5,5-dimethyl-3-((1r,4S)-4-(2-oxo-1H-imidazo[4,5-b]pyridin-3(2H)-yl)cyclohexyl)-4-phenyloxazolidin-2-one]: the values for the IC50 in assay [4] (setting [5]) and in assay [1] were 517 nM and 183 nM, respectively. Moreover, the EC50 with Axin2 in SW480 cells (setting [6]) was 3580 nM.
On to `CC1(C)OC(=O)N([C@H]2CC[C@H](c3c[nH]c(=O)c(-c4ncccn4)c3)CC2)[C@H]1c1ccccc1` [Example 97, (S)-5,5-Dimethyl-3-((1r,4S)-4-(6-oxo-5-(pyrimidin-2-yl)-1,6-dihydropyridin-3-yl)cyclohexyl)-4-phenyloxazolidin-2-one], for which the values for the IC50 in assay [2] and in assay [4] (setting [5]) were 267 nM and 4430 nM, respectively. Further, in the assay with Axin2 in SW480 cells (setting [6]), the concentration for a half-maximal effect (EC50) was above 25000 nM.
On to `CC1(C)OC(=O)N([C@H]2CC[C@H](c3cnc4[nH]c(=O)n(-c5ncccn5)c4c3)CC2)[C@H]1c1ccccc1` [Example 98, (S)-5,5-dimethyl-3-((1r,4S)-4-(2-oxo-1-(pyrimidin-2-yl)-2,3-dihydro-1H-imidazo[4,5-b]pyridin-6-yl)cyclohexyl)-4-phenyloxazolidin-2-one], for which the values for the IC50 in assay [2] and in assay [4] (setting [5]) were 0.316 nM and 48.2 nM, respectively. For the same compound, the EC50 in the assay with Axin2 in SW480 cells (setting [6]) came to 35.7 nM.
For the compound `COc1cccc([C@H]2N(c3ccc(C(=O)Nc4cccc5cccnc45)cc3)C(=O)OC2(C)C)c1` [Example 106, (R)-4-(4-(3-Methoxyphenyl)-5,5-dimethyl-2-oxooxazolidin-3-yl)-N-(quinolin-8-yl)benzamide], the IC50 in assay [2] came to 1880 nM; in assay [4] (setting [5]), 6650 nM. Also, the half-maximal effective concentration (EC50) in the assay on Axin2 in SW480 cells (setting [6]) is above 25000 nM.
In the same order, the values of `CC1(C)OC(=O)N(c2ccc(C(=O)Nc3cccc4cccnc34)cc2)[C@H]1c1cccc(F)c1` [Example 110, (S)-4-(4-(3-fluorophenyl)-5,5-dimethyl-2-oxooxazolidin-3-yl)-N-(quinolin-8-yl)benzamide] are 193 nM, 1690 nM and 2700 nM.
Turning to `COc1ccc([C@@H]2N(c3ccc(C(=O)Nc4cccc5cccnc45)cc3)C(=O)OC2(C)C)cc1` [Example 113, (S)-4-(4-(4-methoxyphenyl)-5,5-dimethyl-2-oxooxazolidin-3-yl)-N-(quinolin-8-yl)benzamide], the figures for the IC50 in assay [2] and in assay [4] (setting [5]) were 130 nM and 2110 nM, respectively. In the assay with Axin2 in SW480 cells (setting [6]), the EC50 came to 5220 nM.
Turning to `CC1(C)OC(=O)N(c2ccc(-c3cc(-c4ccccn4)c[nH]c3=O)cc2)[C@H]1c1ccccc1` [Example 115, (S)-5,5-dimethyl-3-(4-(6′-oxo-1′,6′-dihydro-[2,3′-bipyridin]-5′-yl)phenyl)-4-phenyloxazolidin-2-one], the results for the IC50 in assay [2] and in assay [4] (setting [5]) were 95.3 nM and 1010 nM, respectively. Also, the EC50 in the assay with Axin2 in SW480 cells (setting [6]) amounted to 4380 nM.
In the same order, the values of `CC1(C)OC(=O)N(c2ccc(-c3cc(-c4cccnc4)cnc3F)cc2)[C@H]1c1ccccc1` [Example 117, (S)-3-(4-(6-fluoro-[3,3′-bipyridin]-5-yl)phenyl)-5,5-dimethyl-4-phenyloxazolidin-2-one] are 193 nM, 1050 nM and 5740 nM.
Take `CC1(C)OC(=O)N(c2ccc(-c3cc(-c4cccnc4)c[nH]c3=O)cc2)[C@H]1c1ccccc1` [Example 118, (S)-5,5-dimethyl-3-(4-(6-oxo-1,6-dihydro-[3,3′-bipyridin]-5-yl)phenyl)-4-phenyloxazolidin-2-one]: the IC50 in assay [2] was 150 nM; in assay [4] (setting [5]) it was above 10000 nM. The concentration giving a half-maximal response (EC50) in the assay with Axin2 in SW480 cells (setting [6]) was above 25000 nM.
The corresponding values for `CC1(C)OC(=O)N(c2ccc(-c3ccc[nH]c3=O)cc2)[C@H]1c1ccccc1` [Example 119, (S)-5,5-dimethyl-3-(4-(2-oxo-1,2-dihydropyridin-3-yl)phenyl)-4-phenyloxazolidin-2-one] are 1350 nM, above 10000 nM and above 25000 nM.
In the case of `CC1(C)OC(=O)N(c2ccc(-c3cc(-c4nccc(C#N)n4)c[nH]c3=O)cc2)[C@H]1c1ccccc1` [Example 120, (S)-2-(5-(4-(5,5-dimethyl-2-oxo-4-phenyloxazolidin-3-yl)phenyl)-6-oxo-1,6-dihydropyridin-3-yl)pyrimidine-4-carbonitrile], the IC50 in assay [2] stood at 75.8 nM; in assay [4] (setting [5]), 2360 nM. Besides, the concentration giving a half-maximal response (EC50) with Axin2 in SW480 cells (setting [6]) came to 825 nM.
As to `CC1(C)OC(=O)N(c2ccc(C(=O)Nc3cccc4cccnc34)cc2)[C@H]1c1ccncc1` [Example 126, (S)-4-(5,5-dimethyl-2-oxo-4-(pyridin-4-yl)oxazolidin-3-yl)-N-(quinolin-8-yl)benzamide], the results for the IC50 in assay [2] and in assay [4] (setting [7]) were 272 nM and 761 nM, respectively. Also, in the assay with Axin2 in SW480 cells (setting [6]), the concentration for a half-maximal effect (EC50) came to 4620 nM.
With `CC1(C)OC(=O)N(c2ccc(-n3cc(-c4ncccn4)ccc3=O)cc2)[C@H]1c1ccccc1` [Example 127, (S)-5,5-dimethyl-3-(4-(2-oxo-5-(pyrimidin-2-yl)pyridin-1(2H)-yl)phenyl)-4-phenyloxazolidin-2-one], the IC50 was determined as 280 nM in assay [2] and 1100 nM in assay [4] (setting [5]). Also, the EC50 with Axin2 in SW480 cells (setting [6]) came to 6270 nM.
Consider `CC1(C)OC(=O)N(c2ccc(-c3cc(-c4ncccn4)ncc3F)cc2)[C@H]1c1ccccc1` [Example 129, (S)-3-(4-(5-fluoro-2-(pyrimidin-2-yl)pyridin-4-yl)phenyl)-5,5-dimethyl-4-phenyloxazolidin-2-one], for which the IC50 is 1830 nM in assay [2] and above 10000 nM in assay [4] (setting [5]). Also, in the assay with Axin2 in SW480 cells (setting [6]), the half-maximal effective concentration (EC50) was above 25000 nM.
Take `CC1(C)OC(=O)N([C@H]2CC[C@H](c3cc(C4=NCCCN4)c[nH]c3=O)CC2)[C@H]1c1ccccc1` [Example 130, (S)-5,5-dimethyl-3-((1r,4S)-4-(2-oxo-5-(1,4,5,6-tetrahydropyrimidin-2-yl)-1,2-dihydropyridin-3-yl)cyclohexyl)-4-phenyloxazolidin-2-one]: the results for the IC50 in assay [2] and in assay [4] (setting [7]) were 783 nM and above 10000 nM, respectively. For the same compound, the concentration for a half-maximal effect (EC50) in the assay with Axin2 in SW480 cells (Homo sapiens, SW480, 24 h) is above 25000 nM.
Consider `CC1(C)OC(=O)N(C2CC=C(c3cnc(N)c(-c4ncccn4)c3)CC2)C1c1ccccc1` (stereo not drawn) [Example 131, 3-(4-(6-amino-5-(pyrimidin-2-yl)pyridin-3-yl)cyclohex-3-en-1-yl)-5,5-dimethyl-4-phenyloxazolidin-2-one], for which the IC50 in assay [2] was 16 nM; in assay [4] (setting [5]), 362 nM. For the same compound, the 50% effective concentration (EC50) with Axin2 in SW480 cells (setting [6]) turned out to be 1030 nM.
Consider “(S)-5,5-dimethyl-3-(4-(2-oxo-1H-imidazo[4,5-c]pyridin-3(2H)-yl)phenyl)-4-phenyloxazolidin-2-one [Example 15]”, for which the IC50 in assay [2] amounted to 105 nM; in assay [4] (SW480 cells, 40 to 48 hours, top concentration 10 μM, read-out: SW480-Total β-Catenin IC50 IP), 992 nM. The EC50 with Axin2 in SW480 cells (SW480 cells, 24 hours) was determined as 4150 nM.
